This is an account of results in ChEMBL document CHEMBL1201862, “PubChem BioAssay data set” (2004).

The target of assay [1] is DNA dC->dU-editing enzyme APOBEC-3G (Homo sapiens, UniProt Q9HC16). The assay is classed as functional.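 Note: Dose-response counterscreen measuring inhibition of APOBEC3G DNA deaminase activity, run while confirming APOBEC3A inhibitors.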
Assay [2] in a line: cytotoxicity toward NIH3T3 fibroblasts, dose response, counter-screen, cell-based, ATP luminescence, mouse fibroblasts (AID 2010).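 Note: cells exposed to compound for about 90 hours before reading.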 The class given is functional.
A short description of assay [3]: inhibitors of intracellular T. cruzi replication, confirmation, NIH3T3 host cells, beta-gal luminescence (AID 2044).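 Note: intracellular parasites grown in NIH/3T3 mouse fibroblasts as host cells; luminescent beta-galactosidase reporter signal from transgenic T. cruzi replicating inside host cells; inhibitors lower the luminescence signal.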 The assay is classed as functional, cell-based.
Assay [4] addresses DNA dC->dU-editing enzyme APOBEC-3A (Homo sapiens, UniProt P31941). In words: Dose Response confirmation of small molecule APOBEC3A DNA Deaminase Inhibitors via a fluorescence-based single-stranded DNA deaminase assay. [Related pubchem assays (depositor defined):AID493011, AID493024]. The assay is classed as functional.
Assay [5] addresses T1, Kappa-type opioid receptor (Homo sapiens, UniProt P41145). Description: SAR analysis of small molecule agonists of the kappa opioid receptor via a luminescent beta-arrestin assay - Set 3. [Related pubchem assays (depositor defined):AID1777, AID1785, AID1786, AID1966, AID2133, AID2136, AID2284, AID2500]. The assay is classed as functional.
Another assay has as its target Mu-type opioid receptor (Homo sapiens, UniProt P35372). Description: SAR Analysis of Agonists of the MOR Receptor using an Image-Based Assay - Set 3. [Related pubchem assays (depositor defined):AID1777, AID1785, AID1786, AID1966, AID2133, AID2136, AID2284, AID2285, AID2352]. The class given is functional.
The target in assay [6] is Delta-type opioid receptor (Homo sapiens, UniProt P41143). In words: SAR Analysis of Agonists of the DOR Receptor using an Image-Based Assay - Set 3. [Related pubchem assays (depositor defined):AID1777, AID1786]. The assay is classed as functional.
The target in assay [7] is T1, Kappa-type opioid receptor. In words: KOR agonist analogs, arrestin-GFP redistribution, SAR follow-up, imaging, image-based, set 3 (AID 488833). The class given is functional.
Assay [8] concerns the target T1, Kappa-type opioid receptor. Description: SAR analysis of small molecule antagonists of the kappa opioid receptor via a luminescent beta-arrestin assay - Set 4. [Related pubchem assays (depositor defined):AID1777, AID1778, AID1785, AID1786, AID1966, AID2133, AID2136, AID2285]. The assay is classed as functional.
Assay [9] concerns the target T1, Kappa-type opioid receptor. In words: SAR analysis of small molecule antagonists of the kappa opioid receptor via a luminescent beta-arrestin assay - Set 5. [Related pubchem assays (depositor defined):AID1778, AID1785]. The assay is classed as functional.
The target in assay [10] is Alkaline phosphatase, placental type (Homo sapiens, UniProt P05187). In words: PLAP enzyme inhibitors, confirmation, biochemical, luminescence (AID 1512). The class given is functional.
In the next assay the test system is CHO. In words: cytotoxicity in TLR9-MyD88 CHO cells, dose response, cytotoxicity control for TLR9-MyD88 binding inhibitor project, cell-based, luminescence (AID 588339).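 Note: CHO cells stably coexpressing TLR9 and MyD88 fusions from primary screen; compound exposure lasted 48 hours before viability readout.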 The class given is functional, hamster. The settings on record: Cricetulus griseus.
A short description of assay [11]: inhibitors of firefly luciferase expression or activity, dose response, H4 neuroglioma cells, luminescence (AID 1990). The class given is functional, cell-based.
Assay [12] deals with Streptococcus sp. 'group A'. In words: growth inhibition of control SK(-) GAS strain, dose response, counter-screen for streptokinase expression inhibitor project, luminescence, kanamycin, BacTiterGlo, confirmation (AID 1900). The assay is classed as functional, organism-based.
A short description of assay [13]: inhibitors of HIV Env-driven cell fusion, dose response, cherry-pick (AID 652057). The assay is classed as functional, cell-based.
Assay [14] can be described thus: NIH-3T3 fibroblast cytotoxicity, dose response, cytotoxicity control, cell-based, fluorescence, Alamar Blue, secondary assay (AID 2327).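 Note: NIH-3T3 mouse fibroblasts cultured with fluconazole at 8 µg/mL.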 The class given is functional.
Assay [15] deals with Intestinal-type alkaline phosphatase (Homo sapiens, UniProt P09923). Description: activation of human intestinal alkaline phosphatase – biochemical, dose response (AID 488873). The assay is classed as functional.
Assay [16] can be described thus: inhibitors of clade B AD8 Env fusion, dose response, cell-based, cherry-pick (AID 652062).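 Note: luciferase signal from cell-cell fusion driven by HIV-1 clade B AD8 Env; potency is for inhibitors of fusion seen as a drop in luminescence.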 The assay is classed as functional.
Assay [17] deals with BJ. Description: cytotoxicity toward BJ-TERT fibroblasts, dose response, cell-based, RAS-independent, luminescence (AID 1933). The class given is functional. The settings on record: Homo sapiens.
Assay [18] in a line: C. albicans growth with fluconazole, confirmation, fluorescence, retest (AID 2467). The assay is classed as functional, cell-based.
For another assay, the target named is Beta Lactamase (Pseudomonas aeruginosa, UniProt Q932Y6). In words: beta-lactamase reporter inhibitor potency, dose response, artefact control for TLR9-MyD88 binding inhibitor project, BLA reporter cells, FRET fluorescence (AID 588341).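 Note: cell based assay in CHO-K1 cells stably expressing beta-lactamase.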 The assay is classed as cell-based.
Assay [19] can be described thus: inhibitors of SNCA 5'UTR-driven translation, confirmation, luminescence, H4 neuroglioblastoma cells, dose confirmation (AID 2454).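 Note: H4 neuroglioblastoma cells carrying an alpha-synuclein 5'UTR luciferase reporter; potency for inhibition of the luciferase signal.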 The assay is classed as functional, cell-based.
The nature of assay [20]: ZM109 Env clade C HIV-1 fusion inhibitors, dose response, HeLa effector, CEM target cells, luciferase, cherry-pick (AID 652058). The class given is functional, cell-based.
For assay [21], the system named is BJ. Description: cells. The assay is classed as functional, cell-based. Conditions: Homo sapiens.
Assay [22] deals with NACHT, LRR and PYD domains-containing protein 3 (Homo sapiens, UniProt Q96P20). In words: NALP3 inhibitors in yeast, dose response, luminescent (AID 488799). The class given is functional.
The subject of another assay is Streptococcus. In words: Group A Streptococcus viability loss, dose response, counter-screen for streptokinase expression inhibitor project, luminescence, BacTiterGlo (AID 1915).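 Note: potency for reduction of bacterial viability or growth.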 The class given is functional, organism-based.
The nature of a further assay: cells. The class given is functional, cell-based.
Assay [23] concerns BJ. Description: cytotoxicity toward Ras-transformed BJeLR fibroblasts, dose response, cell-based, alamar blue fluorescence, cherrypicked samples (AID 2631).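 Note: confirmatory dose-response assay in RAS-dependent BJ fibroblasts engineered with TERT, LT and ST, with cytotoxicity read by fluorescence.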 The class given is functional. The settings on record: Homo sapiens.
Assay [24] addresses ATP-dependent molecular chaperone HSP82 (Candida albicans (strain WO-1) (Yeast), UniProt C4YTQ8). In words: loss of DOC-induced GRE-beta-galactosidase reporter signal, dose response, Hsp90 inhibitor project, S. cerevisiae, luminescence (AID 2400).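 Note: beta-galactosidase luminescence from glucocorticoid response element reporter as proxy for Hsp90 function; inhibitor potency where signal loss means Hsp90 inhibition.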 The assay is classed as functional, cell-based.
A short description of assay [25]: microbe, parasite or virus in culture. The assay is classed as functional. The settings on record: Mycobacterium tuberculosis.
A short description of assay [26]: CEM21 lymphoblast cell cytotoxicity, dose response, cytotoxicity control for viral fusion inhibitor project, CellTiter-Glo luminescence, cherry-picked (AID 652042).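 Note: potency for signal decrease meaning cytotoxicity.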 The assay is classed as functional, cell-based.
Assay [27] deals with BJ. Description: cytotoxicity toward BJ-TERT-LT-ST fibroblasts, dose response, cell-based, RAS-independent, luminescence (AID 1935).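 Note: BJ fibroblasts immortalized with TERT plus LT and ST oncogenes.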 The assay is classed as functional. The settings on record: Homo sapiens.
The nature of assay [28]: off-target signal loss in HeLa-CEM21 co-culture – HeLa F-luc CTL cells, cherry-picked, counter-screen for HIV-1 Env fusion inhibitor project, dose response (AID 652040).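 Note: potency for signal decrease marking cytotoxic or nonspecific inhibition.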 The assay is classed as functional, cell-based.
The target in assay [29] is Intestinal-type alkaline phosphatase (Mus musculus, UniProt P24822). In words: mouse intestinal alkaline phosphatase activators, dose response, biochemical, luminescence, uHTS hits (AID 488783). The class given is functional.
For assay [30], the target named is Serine/threonine-protein phosphatase (Candida dubliniensis (strain CD36 / CBS 7987 / NCPF 3949 / NRRLY-17841) (Yeast), UniProt B9W6M3). In words: calcineurin pathway inhibitors in yeast reporter, dose response, S. cerevisiae, CDRE-lacZ, luminescence, secondary (AID 2388).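 Note: yeast reporter cells carrying a calcineurin-responsive lacZ construct stimulated with calcium chloride; luminescent beta-galactosidase reporter signal in whole cells rather than isolated phosphatase activity; potency for inhibition where a drop in reporter signal means calcineurin blockade.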 The class given is functional, cell-based.
The test system of the next assay is INS1. Description: beta cell apoptosis inhibitors, cytokine rescue, dose response, luminescence, retest (AID 449756).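 Note: cell death triggered by IL-1 beta plus TNF-alpha plus IFN-gamma mixture; protective hits raise ATP signal compared with cytokine alone wells.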 The settings on record: Rattus norvegicus. The class given is functional, cell-based.
Assay [31] is described as follows: inhibitors of SNCA 5'UTR-driven reporter translation, confirmation, H4 neuroglioma cells, luminescence (AID 1988). The class given is functional, cell-based.
A short description of assay [32]: cytotoxicity toward DRD oncogenic fibroblasts, dose response, cell-based, non-viral oncogenic, luminescence (AID 1934). The class given is functional. Conditions: Homo sapiens.
Assay [33] is described as follows: Luminescence Cell-Based Dose Response HTS to Identify Inhibitors of 5'UTR Stem-Loop Driven Prion Protein mRNA Translation in H4 Neuroglioblastoma Cells. [Related pubchem assays: 1827 (Project Summary), 1813 (Primary HTS)]. The class given is functional.
In assay [34] the target is Hepatocyte nuclear factor 4-alpha (Homo sapiens, UniProt P41235). The assay is classed as functional, cell-based.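 Note: biochemical luminescence-based dose-response counterscreen measuring inhibition of HNF4 dimerization, run alongside a screen for blockers of ABHD5–perilipin-5 interaction; split luciferase complementation of HNF4 fusion proteins in cell lysate measuring dimerization.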
A short description of assay [35]: luciferase reporter signal reduction – luminescence, H4-C neuroglioblastoma cells, dose response (AID 2458).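 Note: H4 neuroglioblastoma cells stably carrying a luciferase reporter gene fusion.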 The assay is classed as functional, cell-based.

Calls of active or inactive are those of the source.

T1 sequence (P41145 whole entry): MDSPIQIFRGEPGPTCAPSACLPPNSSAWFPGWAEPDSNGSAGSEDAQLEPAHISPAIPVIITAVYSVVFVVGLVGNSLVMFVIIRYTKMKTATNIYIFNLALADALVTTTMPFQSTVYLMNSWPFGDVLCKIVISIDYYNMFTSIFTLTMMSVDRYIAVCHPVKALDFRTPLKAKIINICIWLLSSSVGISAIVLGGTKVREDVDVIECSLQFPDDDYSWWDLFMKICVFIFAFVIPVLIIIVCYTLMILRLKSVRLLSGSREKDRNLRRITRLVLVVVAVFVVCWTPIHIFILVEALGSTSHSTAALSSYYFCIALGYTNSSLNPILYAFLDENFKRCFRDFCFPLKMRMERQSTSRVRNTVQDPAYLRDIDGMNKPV
Alkaline phosphatase, placental type, sequence (P05187 whole entry, the tested form may be a part): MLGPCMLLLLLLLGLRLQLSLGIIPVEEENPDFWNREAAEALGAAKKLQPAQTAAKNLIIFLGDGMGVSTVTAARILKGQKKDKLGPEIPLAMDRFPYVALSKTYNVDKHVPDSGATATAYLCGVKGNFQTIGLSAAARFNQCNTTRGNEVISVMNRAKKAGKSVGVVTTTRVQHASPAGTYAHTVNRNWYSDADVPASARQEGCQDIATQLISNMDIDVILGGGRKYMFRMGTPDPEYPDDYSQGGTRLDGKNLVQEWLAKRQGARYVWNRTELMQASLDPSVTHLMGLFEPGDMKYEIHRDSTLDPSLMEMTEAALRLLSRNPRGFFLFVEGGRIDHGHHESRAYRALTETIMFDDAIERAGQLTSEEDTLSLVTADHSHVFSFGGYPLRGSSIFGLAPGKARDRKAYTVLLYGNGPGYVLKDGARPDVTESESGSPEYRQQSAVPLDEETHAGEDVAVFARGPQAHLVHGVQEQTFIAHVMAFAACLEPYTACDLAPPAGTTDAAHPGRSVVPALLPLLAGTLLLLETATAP
DNA dC->dU-editing enzyme APOBEC-3A, sequence (P31941 whole entry): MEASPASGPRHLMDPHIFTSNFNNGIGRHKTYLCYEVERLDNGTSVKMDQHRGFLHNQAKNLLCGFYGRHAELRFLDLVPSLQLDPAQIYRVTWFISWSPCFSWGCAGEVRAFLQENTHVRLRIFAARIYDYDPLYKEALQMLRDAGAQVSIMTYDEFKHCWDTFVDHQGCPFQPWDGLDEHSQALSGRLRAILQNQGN
Beta Lactamase, sequence (Q932Y6 whole entry): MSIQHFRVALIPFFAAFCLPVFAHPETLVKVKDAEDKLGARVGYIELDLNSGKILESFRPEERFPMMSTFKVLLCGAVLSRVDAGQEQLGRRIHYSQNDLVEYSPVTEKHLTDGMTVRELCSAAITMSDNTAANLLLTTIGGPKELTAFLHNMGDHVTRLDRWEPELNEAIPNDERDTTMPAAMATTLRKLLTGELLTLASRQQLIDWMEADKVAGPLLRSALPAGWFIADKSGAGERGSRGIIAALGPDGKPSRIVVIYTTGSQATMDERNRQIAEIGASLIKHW
DNA dC->dU-editing enzyme APOBEC-3G, sequence (Q9HC16 whole entry): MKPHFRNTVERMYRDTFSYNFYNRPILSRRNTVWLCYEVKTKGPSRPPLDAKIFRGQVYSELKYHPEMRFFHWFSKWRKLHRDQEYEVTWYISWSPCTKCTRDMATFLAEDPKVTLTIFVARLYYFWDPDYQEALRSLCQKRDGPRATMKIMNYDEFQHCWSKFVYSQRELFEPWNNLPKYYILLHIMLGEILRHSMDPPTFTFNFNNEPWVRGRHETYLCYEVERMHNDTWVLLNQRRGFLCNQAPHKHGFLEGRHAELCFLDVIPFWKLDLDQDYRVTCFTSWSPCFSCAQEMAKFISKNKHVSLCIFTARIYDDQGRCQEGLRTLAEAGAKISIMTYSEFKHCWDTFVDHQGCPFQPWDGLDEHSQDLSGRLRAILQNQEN
Intestinal-type alkaline phosphatase (Mus musculus, UniProt P24822), sequence (P24822 whole entry): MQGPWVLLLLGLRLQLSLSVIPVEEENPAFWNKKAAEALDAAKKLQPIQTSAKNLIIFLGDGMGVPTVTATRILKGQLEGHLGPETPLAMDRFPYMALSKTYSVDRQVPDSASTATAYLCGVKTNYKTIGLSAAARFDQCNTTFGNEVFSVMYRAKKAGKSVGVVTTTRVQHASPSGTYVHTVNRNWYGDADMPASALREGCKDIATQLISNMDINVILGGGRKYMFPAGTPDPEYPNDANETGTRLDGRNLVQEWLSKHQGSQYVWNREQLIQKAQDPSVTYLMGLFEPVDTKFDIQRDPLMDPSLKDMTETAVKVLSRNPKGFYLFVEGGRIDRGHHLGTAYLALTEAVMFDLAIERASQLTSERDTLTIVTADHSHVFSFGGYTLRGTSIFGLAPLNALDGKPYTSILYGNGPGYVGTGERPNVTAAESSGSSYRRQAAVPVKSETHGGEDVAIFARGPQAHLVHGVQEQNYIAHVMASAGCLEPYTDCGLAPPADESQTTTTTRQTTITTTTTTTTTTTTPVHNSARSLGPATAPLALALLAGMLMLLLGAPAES
Intestinal-type alkaline phosphatase (Homo sapiens, UniProt P09923), sequence (P09923 whole entry, the tested form may be a part): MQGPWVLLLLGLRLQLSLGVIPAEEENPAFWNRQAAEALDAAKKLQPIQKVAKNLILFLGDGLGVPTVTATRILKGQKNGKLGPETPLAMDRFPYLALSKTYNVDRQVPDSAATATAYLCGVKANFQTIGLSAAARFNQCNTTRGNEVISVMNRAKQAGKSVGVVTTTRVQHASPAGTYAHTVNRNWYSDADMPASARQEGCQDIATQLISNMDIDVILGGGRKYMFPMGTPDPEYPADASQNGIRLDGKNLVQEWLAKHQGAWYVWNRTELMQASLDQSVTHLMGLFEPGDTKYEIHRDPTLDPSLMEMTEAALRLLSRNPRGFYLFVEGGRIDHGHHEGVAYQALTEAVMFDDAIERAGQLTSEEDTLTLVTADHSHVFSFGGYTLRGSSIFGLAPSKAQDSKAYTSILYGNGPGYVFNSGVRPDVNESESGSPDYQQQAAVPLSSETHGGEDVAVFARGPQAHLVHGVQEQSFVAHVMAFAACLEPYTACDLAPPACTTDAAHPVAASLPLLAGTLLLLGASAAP
Mu-type opioid receptor, sequence (P35372 whole entry): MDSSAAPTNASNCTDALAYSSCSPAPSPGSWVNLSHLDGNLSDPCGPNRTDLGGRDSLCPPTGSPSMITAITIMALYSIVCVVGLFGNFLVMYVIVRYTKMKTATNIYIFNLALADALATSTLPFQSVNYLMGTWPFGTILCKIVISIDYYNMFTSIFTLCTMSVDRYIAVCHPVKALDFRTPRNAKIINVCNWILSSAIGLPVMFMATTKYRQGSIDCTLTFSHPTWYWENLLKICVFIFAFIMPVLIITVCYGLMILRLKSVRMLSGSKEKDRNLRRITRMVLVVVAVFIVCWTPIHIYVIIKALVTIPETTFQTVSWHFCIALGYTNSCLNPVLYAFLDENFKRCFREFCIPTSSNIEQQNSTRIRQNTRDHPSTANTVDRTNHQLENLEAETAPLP
Serine/threonine-protein phosphatase, sequence (B9W6M3 whole entry): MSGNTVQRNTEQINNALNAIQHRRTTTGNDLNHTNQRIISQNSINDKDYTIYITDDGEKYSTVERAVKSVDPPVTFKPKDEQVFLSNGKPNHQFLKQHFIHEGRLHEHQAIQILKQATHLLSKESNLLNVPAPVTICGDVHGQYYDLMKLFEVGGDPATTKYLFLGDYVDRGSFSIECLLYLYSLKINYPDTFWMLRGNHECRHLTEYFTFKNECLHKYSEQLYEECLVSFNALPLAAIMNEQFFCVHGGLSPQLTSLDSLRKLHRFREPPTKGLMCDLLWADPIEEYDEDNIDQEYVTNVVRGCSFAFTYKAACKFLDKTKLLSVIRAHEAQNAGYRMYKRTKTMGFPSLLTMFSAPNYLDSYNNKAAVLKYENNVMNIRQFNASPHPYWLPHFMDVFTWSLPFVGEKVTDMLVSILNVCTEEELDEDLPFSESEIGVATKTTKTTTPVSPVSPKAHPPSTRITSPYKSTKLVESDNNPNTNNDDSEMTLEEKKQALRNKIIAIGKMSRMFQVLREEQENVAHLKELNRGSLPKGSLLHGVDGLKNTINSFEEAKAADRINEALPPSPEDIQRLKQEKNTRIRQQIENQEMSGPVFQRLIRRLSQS
ATP-dependent molecular chaperone HSP82, sequence (C4YTQ8 whole entry): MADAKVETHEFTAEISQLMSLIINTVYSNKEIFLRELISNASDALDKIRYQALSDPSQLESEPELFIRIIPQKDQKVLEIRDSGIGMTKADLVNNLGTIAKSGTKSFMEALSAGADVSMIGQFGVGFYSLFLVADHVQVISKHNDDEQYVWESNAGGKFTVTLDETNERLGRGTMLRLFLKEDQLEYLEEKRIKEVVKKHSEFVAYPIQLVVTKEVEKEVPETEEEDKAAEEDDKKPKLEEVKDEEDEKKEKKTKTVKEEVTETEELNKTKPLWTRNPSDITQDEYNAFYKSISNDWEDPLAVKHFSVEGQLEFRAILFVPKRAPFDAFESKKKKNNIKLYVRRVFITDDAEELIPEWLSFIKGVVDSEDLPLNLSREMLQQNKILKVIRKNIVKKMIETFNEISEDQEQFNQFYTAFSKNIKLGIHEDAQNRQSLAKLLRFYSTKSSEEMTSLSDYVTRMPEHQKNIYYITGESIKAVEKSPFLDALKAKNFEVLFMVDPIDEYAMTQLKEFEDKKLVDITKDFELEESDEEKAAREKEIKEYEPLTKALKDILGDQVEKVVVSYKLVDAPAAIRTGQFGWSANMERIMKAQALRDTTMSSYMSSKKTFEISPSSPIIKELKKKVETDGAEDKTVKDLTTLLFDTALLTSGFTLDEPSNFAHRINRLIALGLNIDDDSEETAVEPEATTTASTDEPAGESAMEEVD
Delta-type opioid receptor, sequence (P41143 whole entry): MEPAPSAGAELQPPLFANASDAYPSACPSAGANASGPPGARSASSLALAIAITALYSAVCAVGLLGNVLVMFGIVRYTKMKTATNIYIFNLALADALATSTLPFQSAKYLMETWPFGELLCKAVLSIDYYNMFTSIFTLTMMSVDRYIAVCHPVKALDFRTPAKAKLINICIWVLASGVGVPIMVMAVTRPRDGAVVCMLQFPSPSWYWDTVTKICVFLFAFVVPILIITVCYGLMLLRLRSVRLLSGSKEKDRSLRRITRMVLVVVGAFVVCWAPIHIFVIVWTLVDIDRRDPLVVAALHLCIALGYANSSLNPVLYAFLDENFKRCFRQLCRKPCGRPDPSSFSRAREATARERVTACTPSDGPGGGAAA

Turning to `CCN1CCN(c2ccc(S(=O)(=O)N3CCCCC3)cc2NC(=O)COc2ccc(F)cc2Cl)CC1`, the figures for the IC50 in [1] and in assay [4] were 5240 nM (active) and 3240 nM (active), respectively. Besides, the EC50 in assay [2] was > 60000 nM (not active); in assay [3], 474 nM (active).
`O=[N+]([O-])c1ccc(CSc2nnc(-c3ccccn3)n2Cc2ccco2)cc1`: the EC50 in [5] is 2480 nM (active); on Mu-type opioid receptor it was > 32000 nM (inactive); in assay [6] it was > 64000 nM (inactive); in [7], 2350 nM (active).
In the case of `COc1ccc(CN(CCNC(=O)c2cccc(CNS(=O)(=O)c3ccc(C)cc3)c2)C(C)C)cc1`, the figures for the IC50 in assay [8] and in assay [9] were > 20000 nM (inactive) and 9030 nM (active), respectively.
With `CCN1/C(=C/C=C/c2oc3ccc(-c4ccccc4)cc3[n+]2CC)Oc2ccc(-c3ccccc3)cc21`, the IC50 in assay [10] was > 100000 nM (inactive); in the assay on CHO, 1450 nM (active); on Beta Lactamase, 10700 nM (inactive); in assay [22] it was 9070 nM (active); in assay [34] it was 3880 nM (active). Besides, the concentration for a half-maximal effect (EC50) in assay [11] is < 100 nM (active); in assay [12] it was 1500 nM (active); in assay [14] it was 3160 nM (inconclusive); in assay [15], 24200 nM (active); with BJ [17], 1630 nM (inconclusive); in assay [18], 976 nM (active). For the same molecule, the EC50 is 659 nM (active) in assay [19]; 1320 nM (inconclusive) in the assay with BJ [21]; 3890 nM (active) in the assay with Streptococcus; 863 nM (active) in “cells”; < 104 nM (active) in the assay on BJ [23]; 23600 nM (active) in assay [24]. The EC50 in the assay on BJ [27] is 3420 nM (inconclusive); in assay [29], 22200 nM (active); in assay [30], 104000 nM (active); in assay [31], < 100 nM (active); in [32], 1040 nM (inconclusive); in [33], < 100 nM (active). The EC50 in [35] was 696 nM (active). The AC50 in assay [13] is 1150 nM (active); in assay [16], 2550 nM (active); in assay [20] it was 3770 nM (active); in assay [26] it was 1590 nM (active); in assay [28], 6770 nM (active); with INS1 it was 230 nM (active). Further, the CC50 in assay [25] was 1560 nM (active).
